Format in all cases: biochemical
For one experiment, the target named is E. feacium DltA (Enterococcus faecium, UniProt Q3XZT7). In words: in vitro DltA activity assay (luminescence), E. faecium DltA. As to conditions: recombinant DltA, 30 min pre-incubation, 0.5 mM D-Alanine, 0.5-5 μM ATP; read-out: E. feacium DltA IC50. The method, then:
(§1) The effect of the compounds of the invention on DltA enzymes has been based on the measure of their inhibition of DltA activity in vitro. To this end, recombinant proteins DltA were expressed and purified after cloning of the genes of S. aureus, E. faecalis, E. faecium and S. agalactiae as described thereafter. The capacity of the compounds of the invention to inhibit DltA enzymatic activity was assessed using the DltA assays as described below:
(§2) The dltA gene was amplified from chromosomal DNA of S. aureus, E. faecalis, E. faecium and S. agalactiae and introduced into E. coli BL21 (Invitrogen, Carlsbad, Calif.) following manufacturer's instruction. Bacteria were grown at 37° C. under aerobic conditions and isopropyl-beta-D-thiogalactopyranoside (IPTG) was added to 0.5-1 mM when OD600 of the bacterial culture had reached 0.5. After a further incubation for 3 hours, cells were harvested by centrifugation. Purification of the recombinant DltA protein was performed by affinity chromatography on nickel-nitrilotriacetic acid (Ni-NTA) column following manufacturer's instructions (Qiagen). Fractions containing recombinant DltA protein were adjusted to 50% glycerol and stored at −20° C. until use.
(§3) The binding potency of the inhibitors against DltA enzyme was assessed by IC50 determination in an in vitro DltA activity assay. The assay buffer “AB” contained 50 mM Hepes pH8.0, 10 mM MgCl2, 50 mM KCl, 0.012% Triton-X100, 10 mM DTT and 100 nM Myelin-basic protein. The following components were added in a white polystyrene Costar plate up to a final volume of 30 μL: 3 μL DMSO, or inhibitor dissolved in DMSO and 27 μL DltA enzyme in AB. After 30 min of pre-incubation at room temperature, 30 μL of Substrates mix in AB were added in each well to a final volume of 60 μL. This reaction mixture was then composed of DltA (produced in house from S. aureus, E. faecalis, E. faecium and S. agalactiae), 0.5 mM D-Alanine (Sigma), 0.5-5 μM ATP (Sigma) and 0.05 u/ml inorganic pyrophosphatase (Sigma) in assay buffer. After typically 1-2 hours of incubation at room temperature (conversion rate around 30%), 30 μL of the revelation mix were added to a final volume of 90 μL, including the following constituents at the respective final concentrations: 10000 u/ml luciferase (Sigma), 30 μM D-luciferin (Sigma), 100 μM N-acetylcysteamine (Aldrich). Luminescence intensity was immediately measured on a Fluostar Optima (BMG) (excitation 360 nm, emission 520 nm) and converted into inhibition percentages. For IC50 determinations (Inhibitory Concentration 50%) the inhibitor was added at 6 to 10 different concentrations and the related inhibitions were fitted to a classical Langmuir equilibrium model using XLFIT (IDBS).
(§4) For compounds interfering with the luminescent signal (quenching), the same experiment without DltA enzyme was performed to allow quenching determination and correction.

The target of another experiment is S. Agalactiae DltA (Streptococcus agalactiae serotype III (strain NEM316), UniProt Q8VM67). The experiment is described as follows: in vitro DltA activity assay (luminescence), S. agalactiae DltA. As to conditions: recombinant DltA, 30 min pre-incubation, 0.5 mM D-Alanine, 0.5-5 μM ATP; read-out: S. Agalactiae DltA IC50. The protocol:
as §1, §2, §3, §4

For a further experiment, the target named is S. aureus DltA (Staphylococcus aureus (strain NCTC 8325 / PS 47), UniProt Q2FZW6). In words: in vitro DltA activity assay (luminescence), S. aureus DltA. As to conditions: recombinant DltA, 30 min pre-incubation, 0.5 mM D-Alanine, 0.5-5 μM ATP; read-out: S. aureus DltA IC50. The protocol:
as §1, §2, §3, §4

A further experiment addresses E. feacalis DltA (Enterococcus faecalis, UniProt Q830N0). The experiment is described as follows: in vitro DltA activity assay (luminescence), E. faecalis DltA. The note with it: recombinant DltA, 30 min pre-incubation, 0.5 mM D-Alanine, 0.5-5 μM ATP; read-out: E. feacalis DltA IC50. The method, then: as §1, §2, §3, §4

Where a name gives a salt, the structure may show the parent alone.

The term IC50 denotes the midpoint of a concentration-inhibition curve.

Chain of E. feacium DltA (Q3XZT7 1-504): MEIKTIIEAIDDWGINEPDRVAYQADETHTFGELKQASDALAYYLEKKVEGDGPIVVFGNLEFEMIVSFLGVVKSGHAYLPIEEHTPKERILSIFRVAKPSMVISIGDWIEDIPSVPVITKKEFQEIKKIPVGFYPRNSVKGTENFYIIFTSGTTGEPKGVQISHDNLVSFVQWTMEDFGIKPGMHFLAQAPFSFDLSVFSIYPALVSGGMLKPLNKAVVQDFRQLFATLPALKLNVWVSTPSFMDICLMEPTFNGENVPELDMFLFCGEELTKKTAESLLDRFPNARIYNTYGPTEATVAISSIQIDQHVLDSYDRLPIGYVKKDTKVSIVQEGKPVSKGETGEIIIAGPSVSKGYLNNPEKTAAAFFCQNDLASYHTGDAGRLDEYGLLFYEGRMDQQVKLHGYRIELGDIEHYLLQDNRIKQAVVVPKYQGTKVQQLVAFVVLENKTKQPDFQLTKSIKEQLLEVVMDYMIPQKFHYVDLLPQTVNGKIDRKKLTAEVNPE
Chain of E. feacalis DltA (Q830N0 1-506): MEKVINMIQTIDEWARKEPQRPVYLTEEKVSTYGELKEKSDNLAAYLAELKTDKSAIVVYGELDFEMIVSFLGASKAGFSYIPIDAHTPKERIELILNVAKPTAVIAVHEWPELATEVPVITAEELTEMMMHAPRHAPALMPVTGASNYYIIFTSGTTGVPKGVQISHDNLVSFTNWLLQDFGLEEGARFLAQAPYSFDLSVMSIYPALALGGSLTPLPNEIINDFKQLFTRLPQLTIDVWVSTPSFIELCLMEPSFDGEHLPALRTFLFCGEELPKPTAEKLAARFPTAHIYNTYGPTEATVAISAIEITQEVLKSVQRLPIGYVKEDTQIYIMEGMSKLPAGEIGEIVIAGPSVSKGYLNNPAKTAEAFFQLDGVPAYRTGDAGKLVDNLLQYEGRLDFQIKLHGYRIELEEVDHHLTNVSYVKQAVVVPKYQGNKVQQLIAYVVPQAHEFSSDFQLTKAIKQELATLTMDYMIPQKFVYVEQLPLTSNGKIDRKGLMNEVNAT

On to `CN(CCO)c1cc(-c2ccc3c(c2)ncn3[C@@H]2CCCC[C@H]2F)c2nc[nH]c2c1C(N)=O` [Example 171], for which the IC50 worked out at 40 nM on E. feacium DltA, 350 nM at S. Agalactiae DltA, 15 nM at S. aureus DltA and 6.7 nM at E. feacalis DltA.

`CN(C)CCN(C)c1cc(-c2cncc(N3CCCC3)c2)c2nc[nH]c2c1C(N)=O` [Example 230, 5-[2-(dimethylamino)ethyl-methyl-amino]-7-(5-pyrrolidin-1-yl-3-pyridyl)-3H-benzimidazole-4-carboxamide]: the IC50 at E. feacium DltA was 280 nM; on S. Agalactiae DltA, 2100 nM; on S. aureus DltA, 64 nM; at E. feacalis DltA it was 30 nM.

`OCCNc1cc(-c2ccc3c(c2)ncn3C2CCCCC2)c2nc[nH]c2n1` [Example 4, 2-[7-(1-Cyclohexyl-1H-benzimidazol-5-yl)-3H-imidazo[4,5-b]pyridin-5-ylamino]-ethanol]: the IC50 was 2200 nM on E. feacium DltA, 3100 nM on S. Agalactiae DltA, 520 nM at S. aureus DltA and 380 nM on E. feacalis DltA.

Take `CCn1cnc2cc(-c3cc(N(C)CCN(C)C)c(C(N)=O)c4[nH]cnc34)cc(F)c21` [Example 227, 5-[2-(dimethylamino)ethyl-methyl-amino]-7-(1-ethyl-7-fluoro-benzimidazol-5-yl)-3H-benzimidazole-4-carboxamide]: the IC50 amounted to 83 nM on E. feacium DltA, 1300 nM on S. Agalactiae DltA, 32 nM at S. aureus DltA and 30 nM at E. feacalis DltA.

`OC[C@H]1CCN(c2cc3[nH]cnc3c(-c3ccc4c(c3)ncn4C3CCCCC3)n2)C[C@@H]1O` [Example 19, (3R,4R)-1-[4-(1-Cyclohexyl-1H-benzimidazol-5-yl)-1H-imidazo[4,5-c]pyridin-6-yl]-4-hydroxymethyl-piperidin-3-ol]: the IC50 at E. feacium DltA amounted to 1800 nM; at S. Agalactiae DltA, 1900 nM; at S. aureus DltA it was 33 nM; at E. feacalis DltA it was 460 nM.

Consider `NC(=O)c1c(N2CC[C@H](CO)C2)cc(-c2ccc3c(c2)ncn3C2CCCCC2)c2nc[nH]c12` [Example 64, 1′-Cyclohexyl-6-((S)-3-hydroxymethyl-pyrrolidin-1-yl)-1H,1′H-[4,5′]bibenzimidazolyl-7-carboxamide], for which the IC50 worked out at 68 nM on E. feacium DltA, 710 nM on S. Agalactiae DltA, 65 nM at S. aureus DltA and 27 nM on E. feacalis DltA.

Turning to `CN(C)CCN(C)c1cc(-c2cc3c4c(c2)ncn4CCO3)c2nc[nH]c2c1C(N)=O` [Example 165, 7-(3,4-Dihydro-5-oxa-1.2a-diaza-acenaphthylen-7-yl)-5-[(2-dimethylamino-ethyl)-methyl-amino]-3H-benzimidazole-4-carboxamide], the IC50 on E. feacium DltA came out at 90 nM; on S. Agalactiae DltA it was 2200 nM; at S. aureus DltA, 29 nM; at E. feacalis DltA, 26 nM.

Take `CCn1cnc2cc(-c3cc(OCCN(C)C)c(C(N)=O)c4[nH]cnc34)ccc21` [Example 198, 6-(2-Dimethylamino-ethoxy)-1′-ethyl-1H,1′H-[4,5′]]bibenzimidazolyl-7-carboxamide methanesulfonic acid salt]: the IC50 at S. Agalactiae DltA is 1400 nM.

Regarding `N#Cc1c(N2CC[C@H](CO)C2)cc(-c2ccc3c(c2)ncn3C2CCCCC2)c2nc[nH]c12` [Example 58, 1′-Cyclohexyl-6-((S)-3-hydroxymethyl-pyrrolidin-1-yl)-1H,1′H-[4,5′]bibenzimidazolyl-7-carbonitrile], the IC50 is 230 nM on E. feacium DltA, 8600 nM at S. Agalactiae DltA, 180 nM at S. aureus DltA and 120 nM at E. feacalis DltA.

Turning to `CN(CCN1CCCC1)c1cc(-c2cnc3c(c2)CCCO3)c2nc[nH]c2c1C(N)=O` [Example 181, 7-(3,4-Dihydro-2H-pyrano[2,3-b]pyridin-6-yl)-5-[methyl-(2-pyrrolidin-1-yl-ethyl)-amino]-3H-benzimidazole-4-carboxamide], the half-maximal inhibitory concentration (IC50) was 160 nM on E. feacium DltA, 180 nM at S. Agalactiae DltA, 51 nM on S. aureus DltA and 9.2 nM at E. feacalis DltA.

On to `CN(C)CC1CCCN1c1cc(-c2ccc3c(c2)ncn3C2CCCCC2)c2nc[nH]c2c1C(N)=O` (stereo not drawn) [Example 126, 1′-Cyclohexyl-6-(2-dimethylaminomethyl-pyrrolidin-1-yl)-1H,1′H-[4,5′]bibenzimidazolyl-7-carboxamide], for which the IC50 at E. feacium DltA turned out to be 240 nM; on S. Agalactiae DltA it was 1800 nM; at S. aureus DltA, 57 nM; at E. feacalis DltA, 56 nM.

For `CCn1cnc2cc(-c3cc(N(C)CCN(C)C)c(C(N)=O)c4[nH]cnc34)cc(OC)c21` [Example 152], the half-inhibitory concentration (IC50) was determined as 58 nM at E. feacium DltA, 2200 nM on S. Agalactiae DltA, 13 nM at S. aureus DltA and 16 nM on E. feacalis DltA.

Consider `CN(CCO)c1cc(-c2ccc3c(c2)ncn3C2CCCCC2)c2nc[nH]c2c1C#N` [Example 92], for which the IC50 is 600 nM on E. feacium DltA, 8200 nM at S. Agalactiae DltA, 190 nM on S. aureus DltA and 240 nM on E. feacalis DltA.

As to `CCN(CC)CCN(C)c1cc(-c2ccc3c(c2)ncn3C2CCCCC2)c2nc[nH]c2c1C(N)=O` [Example 130, 1′-Cyclohexyl-6-[(2-diethylamino-ethyl)-methyl-amino]-1H,1′H-[4,5′]bibenzimidazolyl-7-carboxamide], the IC50 on E. feacium DltA came to 170 nM; at S. Agalactiae DltA, 790 nM; on S. aureus DltA, 73 nM; on E. feacalis DltA it was 36 nM.

In the case of `CN(C)CCN(CCO)c1cc(-c2ccc3c(c2)ncn3C2CCCCC2)c2nc[nH]c2c1C(N)=O` [Example 131, 1′-Cyclohexyl-6-[(2-dimethylamino-ethyl)-(2-hydroxy-ethyl)-amino]-1H,1′H-[4,5′]bibenzimidazolyl-7-carboxamide], the IC50 amounted to 230 nM at E. feacium DltA, 1900 nM at S. Agalactiae DltA, 75 nM at S. aureus DltA and 40 nM on E. feacalis DltA.

With `OCC1(CO)CCN(c2cc(-c3ccc4c(c3)ncn4C3CCCCC3)c3nc[nH]c3n2)CC1` [Example 6, {1-[7-(1-Cyclohexyl-1H-benzimidazol-5-yl)-3H-imidazo[4,5-b]pyridin-5-yl]-4-hydroxymethyl-piperidin-4-yl}-methanol], the IC50 is 29 nM on E. feacium DltA, 180 nM at S. Agalactiae DltA, 11 nM on S. aureus DltA and 18 nM at E. feacalis DltA.

With `CN(C)CCOc1cc(-c2ccc3c(c2)ncn3C2CCCCC2)c2nc[nH]c2c1C#N` [Example 104], the IC50 at E. feacium DltA is 390 nM; on S. Agalactiae DltA, 2400 nM; at S. aureus DltA, 53 nM; on E. feacalis DltA, 84 nM.

Take `OCC1CCN(c2cc(-c3ccc4c(c3)ncn4C3CCCCC3)c3nc[nH]c3n2)CC1` [Example 3, {1-[7-(1-Cyclohexyl-1H-benzimidazol-5-yl)-3H-imidazo[4,5-b]pyridin-5-yl]-piperidin-4-yl}-methanol]: the IC50 on E. feacium DltA was 100 nM; at S. Agalactiae DltA it was 1400 nM; at S. aureus DltA it was 200 nM; on E. feacalis DltA it was 52 nM.

For `NC(=O)c1c(N2CCC(CO)(CO)CC2)cc(-c2ccc3c(c2)ncn3C2CCCCC2)c2nc[nH]c12` [Example 211, 5-[4,4-bis(hydroxymethyl)-1-piperidyl]-7-(1-cyclohexylbenzimidazol-5-yl)-3H-benzimidazole-4-carboxamide], the IC50 at E. feacium DltA came out at 2 nM; on S. Agalactiae DltA it was 470 nM; at S. aureus DltA it was 24 nM; on E. feacalis DltA, 6.8 nM.

`C[C@H]1CCCC(n2cnc3cc(-c4cc(N(C)CCN(C)C)c(C(N)=O)c5[nH]cnc45)ccc32)C1` (mixture of isomers) [Example 136]: the values for the IC50 on S. Agalactiae DltA and on S. aureus DltA were 360 nM and 5.7 nM, respectively.
